pIC50: −log10 of the molar value. Counter-ions that a name gives are not always drawn.
How the values were obtained:
Src = target: T1, Src (Homo sapiens, UniProt P12931); experiment: Src protein tyrosine kinase inhibition (ELISA of Poly[Glu:Tyr-P]); format: biochemical; details: Src, at 10 µM; read-out: % Inhibition
T1 construct: host or cells: Sf9 insect cells
Experimental: Src protein tyrosine kinase activity was assessed in human recombinant insect Sf9 cells using as a substrate Poly(Glu:Tyr) at 10 µg/mL with preincubation and incubation times of 15 and 5 min, respectively, at 22°C in 50 mM HEPES, pH 7.4, 1 mM DTT, 20 mM MgCl2 and 0.2 mM Na3VO4. An ELISA quantitation method of Poly[Glu:Tyr-P] was employed (Farley, K et al. Anal Biochem, 1992, 203, 151-157). Table 4. Inhibition of Src at 10 µM

mice [1] = experiment: Hot plate test (analgesic activity); format: in vivo; details: 10 and 30 mg/kg i.p.
Experimental: The hot plate test was used as an animal model of thermally-induced pain. The inhibitory activity measured on the time licking and biting induced by temperature (30 sec max at 55°C) indicates analgesic effect. […] Table 13. Analgesic activity of example 1 in the hot plate test

[2] = Maximum Tolerated Dose after acute administration; details: mouse, in vivo, ip, mice
Experimental: The Maximum Tolerated Dose (MTD) in mice was determined for selected compounds. The protocol of the studies was in accordance with the standard guidelines for drug development: • (htp://dtp.nci.nih.gov/branches/btb/acute tox.html). Table 10. Maximum Tolerated Doses in mice after acute i.p. administration

mice [3] = experiment: Formalin test (antinociceptive activity); format: in vivo
Experimental: The chemical irritant formalin test is used as a chronic pain model in animals. The s.c. administration of formalin to the paw of a mouse produces a biphasic nociceptive behavioral response, an early response (0-5 min after injection) and a late response (20-30 min after injection) (Hunskaar, S., Fasmer, O.B., Hole, K. Formalin test in mice, a useful technique for evaluating mild analgesics. J Neurosci Methods, 1985 ;14(1):69-76).
Aspirine and paracetamol are included as external active references in early and late response. Table 12. Early and late response inhibition in the formalin test.

tumor colon HCT-116 = experiment: Tumor cell proliferation assay (alamarBlue); format: cell-based; details: Homo sapiens; tumor colon HCT-116; read-out: IC50
Experimental: (§1) Changes in cell proliferation were detected based on the ability of viable cells to cause alamarBlue® to change its oxidized (non-fluorescent, blue) to a reduced (fluorescent, red) form. The alamarBlue® reaction allows the quantification of cell proliferation and examination of the metabolic activity of viable cells. Test substances were examined for activity on the proliferation of human or murine tumor cell lines at assay concentrations from 0.01 to 100 µM.

tumor liver HepG2 = experiment: Tumor cell proliferation assay (alamarBlue); format: cell-based; details: Homo sapiens; tumor liver HepG2; read-out: IC50
Experimental: as §1

tumor breast MDA-MB-231 = experiment: Tumor cell proliferation assay (alamarBlue); format: cell-based; details: Homo sapiens; tumor breast MDA-MB-231; read-out: IC50
Experimental: as §1

tumor ovary OVCAR-3 = experiment: Tumor cell proliferation assay (alamarBlue); format: cell-based; details: Homo sapiens; tumor ovary OVCAR-3; read-out: IC50
Experimental: as §1

tumor prostate LNCaP-FGC = experiment: Tumor cell proliferation assay (alamarBlue); format: cell-based; details: Homo sapiens; tumor prostate LNCaP-FGC; read-out: IC50
Experimental: as §1

tumor breast MCF-7 = experiment: Tumor cell proliferation assay (alamarBlue); format: cell-based; details: Homo sapiens, MCF7; tumor breast MCF-7; read-out: IC50
Experimental: as §1

tumor leukaemia K562 = experiment: Tumor cell proliferation assay (alamarBlue); format: cell-based; details: Homo sapiens; tumor leukaemia K562; read-out: IC50
Experimental: as §1

tumor breast T-47D = experiment: Tumor cell proliferation assay (alamarBlue); format: cell-based; details: Homo sapiens, T47D; tumor breast T-47D; read-out: IC50
Experimental: as §1

tumor lung A549 = experiment: Tumor cell proliferation assay (alamarBlue); format: cell-based; details: Homo sapiens; tumor lung A549; read-out: IC50
Experimental: as §1

tumor liver Hep 3B = experiment: Tumor cell proliferation assay (alamarBlue); format: cell-based; details: Homo sapiens, Hep3B; tumor liver Hep 3B; read-out: IC50
Experimental: as §1

tumor brain U-87 MG = experiment: Tumor cell proliferation assay (alamarBlue); format: cell-based; details: Homo sapiens; tumor brain U-87 MG; read-out: IC50
Experimental: as §1

tumor melanoma B16-FO = experiment: Tumor cell proliferation assay (alamarBlue); format: cell-based, murine; details: Mus musculus; tumor melanoma B16-FO; read-out: IC50
Experimental: as §1

[4] = target: T2, Gonadotrophin-releasing hormone receptors (GnRH, LH-RH)R (Homo sapiens, UniProt P30968); experiment: GnRH radioligand binding assay; details: GnRH radioligand binding, 10 µM; read-out: % Inhibition at 10 µM
T2 construct: expressed in transfected cells; host or cells: Chem-1 cells
T2 sequence (P30968 1-328): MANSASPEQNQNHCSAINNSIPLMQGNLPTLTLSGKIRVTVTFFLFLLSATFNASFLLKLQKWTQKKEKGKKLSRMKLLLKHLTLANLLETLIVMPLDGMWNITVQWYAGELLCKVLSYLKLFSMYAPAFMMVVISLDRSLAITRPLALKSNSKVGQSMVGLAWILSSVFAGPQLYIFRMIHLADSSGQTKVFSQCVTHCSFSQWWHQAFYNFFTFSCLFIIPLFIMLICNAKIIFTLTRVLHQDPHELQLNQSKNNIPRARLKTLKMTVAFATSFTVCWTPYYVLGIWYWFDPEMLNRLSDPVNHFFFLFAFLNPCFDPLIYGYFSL
Text: Gonadotrophin-releasing hormone receptors (GnRH, LH-RH)R are a family of G protein-coupled receptors for GnRH, which promotes the secretion of luteinizing hormone (LH) and follicle-stimulating hormone (FSH). The activation of this receptor promotes, through estrogen receptors (ER) located in the cytosol, an increase in gene transcription and activation of tumor suppressor genes, DNA repair, cell division and cell proliferation. GnRH agonists are useful in breast, prostate and ovarian cancer, endometriosis, melanoma, rheumatoid arthritis and Alzheimer's disease. Table 17 presents the results from radioligand binding studies for GnRH for selected compounds using human recombinant Chem-1 cells (Halmos G, Schally AV, Pinski J, Vadillo-Buenfill M, Groot K. Down regulation of pituitary receptors for luteinizing hormone-releasing hormone (LH-RH) in rats by LH-RH antagonist Cetrorelix. Prco Natl Acad Sci USA 1996;93(6):2398-2402). The specific and non specific ligands used were [^125l] [D-Trp^6]-LH-RH (0.05 nM) and [D-Trp^6]-LH-RH ([…]) and after 60 min of incubation at 25°C in a 50 mM HEPES, pH 7.5, 5 mM MgCl2, 1 mM CaCl2, and 0.2% BSA the activity was measured by radioligand binding. Table 17. GnRH radioligand binding assay

mice [5] = details: i.p. in mice, comparative antineoplastic agents; cited from earlier work
NET = target: T3, NET (Homo sapiens, UniProt P23975); experiment: Norepinephrine transporter binding ([3H]nisoxetine)
T3 construct: expressed in transfected cells; host or cells: CHO cells
T3 sequence (P23975 whole entry): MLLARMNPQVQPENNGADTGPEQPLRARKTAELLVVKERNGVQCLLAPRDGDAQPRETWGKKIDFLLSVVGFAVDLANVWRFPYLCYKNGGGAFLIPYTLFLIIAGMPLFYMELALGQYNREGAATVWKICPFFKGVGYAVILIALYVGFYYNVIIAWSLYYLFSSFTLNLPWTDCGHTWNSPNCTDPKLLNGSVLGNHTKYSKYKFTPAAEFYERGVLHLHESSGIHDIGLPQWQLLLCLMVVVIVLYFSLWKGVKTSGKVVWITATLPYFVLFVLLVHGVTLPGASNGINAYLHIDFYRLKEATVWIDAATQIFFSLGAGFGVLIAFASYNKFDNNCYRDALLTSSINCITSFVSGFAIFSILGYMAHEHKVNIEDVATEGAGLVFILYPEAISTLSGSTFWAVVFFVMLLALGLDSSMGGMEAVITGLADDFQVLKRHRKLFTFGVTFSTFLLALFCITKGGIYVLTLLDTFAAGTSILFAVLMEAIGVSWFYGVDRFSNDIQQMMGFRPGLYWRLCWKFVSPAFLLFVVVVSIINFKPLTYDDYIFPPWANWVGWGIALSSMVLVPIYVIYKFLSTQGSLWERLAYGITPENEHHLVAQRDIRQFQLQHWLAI
Experimental: (§2) Serotonin transporter (SERT) inhibitors increase extracellular concentrations of serotonin (5-HT) and amplify signals sent by serotonin neurons. Agents that block SERT have been studied for the treatment of several diseases including depression and anxiety. Inhibitors of monoamine transporters have been tested for NET (Pacholczyk, T. et al. Nature, 1991, 350, 350-354) and SERT (Tatsumi, M. et al. Eur J Pharmacol, 1999, 368, 277-283). Norepinephrine transport was assessed in human recombinant CHO cells using [^3H]nisoxetine as a ligand at 1 nM after 60 min of incubation at 22°C, and a scintillation method as a method of detection. Serotonine transport was assessed in human recombinant CHO cells using [^3H]imipramine as a ligand at 2 nM after 60 min of incubation at 22°C, and a scintillation counting as a method of detection.

5-HT Uptake = experiment: Serotonin uptake inhibition in brain synaptosomes; format: biochemical, rat
Experimental: Inhibition of serotonin uptake has been tested in rat brain synaptosomes using [^3H]serotonin (0.2 µCi/ml) after 15 min of incubation at 37°C and measuring the incorporation of [^3H]serotonin into synaptosomes by scintillation counting (Perovic, S. and Muller, W.E.G. Arzneim-Forsch. Drug Res., 1995, 45, 1145-1148).

SERT = target: T4, SERT (Homo sapiens, UniProt P31645); experiment: Serotonin transporter binding ([3H]imipramine)
T4 construct: expressed in transfected cells; host or cells: CHO cells
T4 sequence (P31645 whole entry): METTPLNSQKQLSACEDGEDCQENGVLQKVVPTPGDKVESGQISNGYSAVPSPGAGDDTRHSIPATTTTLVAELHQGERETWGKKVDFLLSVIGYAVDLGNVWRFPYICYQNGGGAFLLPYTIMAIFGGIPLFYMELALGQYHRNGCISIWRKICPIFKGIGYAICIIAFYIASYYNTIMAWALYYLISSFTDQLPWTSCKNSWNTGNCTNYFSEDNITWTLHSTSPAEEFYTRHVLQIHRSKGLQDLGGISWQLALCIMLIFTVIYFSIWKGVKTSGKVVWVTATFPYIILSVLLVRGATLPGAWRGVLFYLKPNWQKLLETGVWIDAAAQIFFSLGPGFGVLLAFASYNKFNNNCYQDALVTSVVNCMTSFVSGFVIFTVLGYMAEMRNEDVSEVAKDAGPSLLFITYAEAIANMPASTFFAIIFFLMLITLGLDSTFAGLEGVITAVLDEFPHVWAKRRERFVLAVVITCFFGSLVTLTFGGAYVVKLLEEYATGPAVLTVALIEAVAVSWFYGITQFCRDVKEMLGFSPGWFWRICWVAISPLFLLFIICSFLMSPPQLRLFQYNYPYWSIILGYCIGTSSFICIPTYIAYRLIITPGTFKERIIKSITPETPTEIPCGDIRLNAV
Experimental: as §2

5-HT2A receptor = target: T5, 5-HT2A receptor (Homo sapiens, UniProt P28223); experiment: 5-HT2A receptor binding ([3H]ketanserin); details: 5-HT2A binding
T5 construct: expressed in transfected cells; host or cells: HEK-293 cells
T5 sequence (P28223 whole entry): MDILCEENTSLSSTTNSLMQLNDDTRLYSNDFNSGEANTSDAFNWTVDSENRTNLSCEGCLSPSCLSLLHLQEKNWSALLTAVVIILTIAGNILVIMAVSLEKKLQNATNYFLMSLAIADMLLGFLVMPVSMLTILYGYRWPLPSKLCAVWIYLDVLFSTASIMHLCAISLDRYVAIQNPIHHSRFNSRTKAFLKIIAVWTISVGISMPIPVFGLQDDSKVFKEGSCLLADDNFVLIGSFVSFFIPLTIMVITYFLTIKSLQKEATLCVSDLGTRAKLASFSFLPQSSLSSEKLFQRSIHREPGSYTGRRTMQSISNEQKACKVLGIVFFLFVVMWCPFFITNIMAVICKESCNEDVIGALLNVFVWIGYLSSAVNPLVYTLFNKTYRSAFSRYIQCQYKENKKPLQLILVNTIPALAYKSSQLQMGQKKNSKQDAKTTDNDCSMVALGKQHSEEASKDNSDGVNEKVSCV
Experimental: The 5-HT2A receptor belongs to the G-protein-coupled receptor (GPCR) target class linked to anxiety and depression. Using human recombinant HEK-293 cells, the binding of compounds of formula (I) to this receptor was determined. The ligand used was [^3H]ketanserin at 0.5 nM and the quantification of the activity was assessed by scintillation counting after 60 min at 22°C (Bonhaus, et al. Br J Pharmacol, 1995, 115, 622-628). Table 16. Inhibition of 5-HT2A binding

NE Uptake = experiment: Norepinephrine uptake inhibition; format: biochemical

T1 sequence (P12931 whole entry): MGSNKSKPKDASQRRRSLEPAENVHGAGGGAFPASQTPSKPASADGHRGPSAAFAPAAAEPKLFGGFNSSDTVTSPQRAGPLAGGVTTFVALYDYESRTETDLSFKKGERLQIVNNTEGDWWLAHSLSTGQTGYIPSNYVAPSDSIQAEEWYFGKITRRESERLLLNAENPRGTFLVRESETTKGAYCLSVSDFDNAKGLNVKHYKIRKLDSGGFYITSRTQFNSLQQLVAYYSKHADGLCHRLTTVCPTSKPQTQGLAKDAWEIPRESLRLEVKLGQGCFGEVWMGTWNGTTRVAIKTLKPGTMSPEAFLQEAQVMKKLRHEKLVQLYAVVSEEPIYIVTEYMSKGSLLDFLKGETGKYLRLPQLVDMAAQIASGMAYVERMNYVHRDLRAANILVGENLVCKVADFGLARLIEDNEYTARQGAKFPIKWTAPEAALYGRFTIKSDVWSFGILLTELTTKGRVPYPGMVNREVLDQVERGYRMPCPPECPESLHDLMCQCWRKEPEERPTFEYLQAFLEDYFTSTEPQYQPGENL

C=CCc1ccc(OC)c(-c2cc(CC=C)ccc2OC(CCNC)c2ccccc2)c1.Cl (stereo not drawn) [Example 2, 5,5'-Diallyl-2-methoxy-2'-[3-(methylamino)-1-phenylpropoxy]biphenyl hydrochloride]
inhibition at 10 µM (Src): 55%
antinociceptive activity in the hot plate test (mice [1]): Dose-dependent antinociceptive activity
MTD [2]: 50 mg/kg
antinociceptive activity in the formalin test (mice [3]; 30 mg/kg i.p, early and late phases, potency similar to morphine 10 mg/kg i.p.): to a lesser extent
antinociceptive activity in the formalin model (mice [3]; 10 and 30 mg/kg i.p, late phase): dose-dependent antinociceptive activity
Early Response (mice [3]; formalin test, dose 30 mg/Kg i.p., early response 0-5 min): inactive
Late Response (mice [3]; formalin test, dose 30 mg/Kg i.p., late response 20-30 min): active
pIC50 (tumor colon HCT-116): 5.68
pIC50 (tumor liver HepG2): 5.44
pIC50 (tumor breast MDA-MB-231): 5.68
pIC50 (tumor ovary OVCAR-3): 5.64
pIC50 (tumor prostate LNCaP-FGC): 5.74
pIC50 (tumor breast MCF-7): 5.59
pIC50 (tumor leukaemia K562): 5.38
pIC50 (tumor breast T-47D): 4.92
pIC50 (tumor lung A549): 5.89
pIC50 (tumor liver Hep 3B): 5.49
pIC50 (tumor brain U-87 MG): 5.66
pIC50 (tumor melanoma B16-FO): 5.64
inhibition at 10 µM [4]: 33%

N.N.[Cl][Pt][Cl] [cisplatin]
MTD (mice [5]): 4 mg/kg

CC(=O)O[C@H]1C(=O)[C@@]2(C)[C@H]([C@H](OC(=O)c3ccccc3)[C@]3(O)C[C@H](OC(=O)[C@H](O)[C@@H](NC(=O)c4ccccc4)c4ccccc4)C(C)=C1C3(C)C)[C@]1(OC(C)=O)CO[C@@H]1C[C@@H]2O [placlitaxel]
MTD (mice [5]): 20 to 50 mg/kg

C=CCc1ccc(OCC)c(-c2cc(CC=C)ccc2OC(CCNC)c2ccccc2)c1 (stereo not drawn) [Example 3, 5,5'-Diallyl-2-ethoxy-2'-[3-(methylamino)-1-phenylpropoxylbiphenyl hydrochloride]
inhibition at 5 µM (NET): 87%
% Inhibition (5.0 µM) 5-HT Uptake (5-HT Uptake): 52%
inhibition at 5 µM (SERT): 73%
inhibition at 5 µM (5-HT2A receptor): 86%
% Inhibition (5.0 µM) NE Uptake (NE Uptake): 85%
